Results: US20080194546A1, “Pyrido-, Pyrazo- and Pyrimido-Pyrimidine Derivatives as mTOR Inhibitors” (KuDOS Pharmaceuticals Limited, priority 2005, published 2008)
Where two headings read alike, the source gives them in different places.

What was measured:
[1] = test system: phosphorylation of Serine 473 in Akt in MDA-MB-468 cells; assay: In Vitro phospho-Ser473 Akt Assay (Acumen Explorer); type: cell-based; conditions: Homo sapiens
[2] = target: recombinant mTOR (FLAG-tagged, amino acid residues 1362 to 2549) (Homo sapiens, UniProt P42345); assay: Alternative Enzyme Assay: AlphaScreen, inhibition of phosphorylation by recombinant mTOR; type: biochemical; conditions: Alternative Enzyme Assay, single values; read-out: IC50
[3] = target: T1, mTOR (Homo sapiens, UniProt P42345); assay: Biological Assay: mTOR enzyme activity, mTOR immunoprecipitated from HeLa cell cytoplasmic extract, recombinant PHAS-1 as substrate; type: biochemical; conditions: Biological Assay
T1 construct: mTOR protein was isolated from HeLa cell cytoplasmic extract by immunoprecipitation; endogenous in cells; host or cells: HeLa cell cytoplasmic extract (immunoprecipitate)
Excerpt: For mTOR enzyme activity assays, mTOR protein was isolated from HeLa cell cytoplasmic extract by immunoprecipitation, and activity determined essentially as described previously using recombinant PHAS-1 as a substrate (ref. 21).

[4] = test system: T47D cells; assay: Cell Proliferation Assay (GI50), sulforhodamine B (SRB) assay; type: cell-based; conditions: Homo sapiens, 120 hours, SRB
Method: Cell growth was assessed using the sulforhodamine B (SRB) assay (A). T47D (ECACC, 85102201) cells were routinely passaged in RPMI (Invitrogen, 42401018) plus 10% foetal calf serum (FCS), 1% L-glutamine (Gibco BRL, 25030) to a confluence not greater than 80%. To undertake the assay, T47D cells were seeded at 2.5×10^3 cells/well in […] RPMI plus 10% foetal calf serum, 1% L-glutamine in 96 well plates (Costar, 3904) and incubated at 37° C. (+5% CO2) in a humidified incubator. Once the cells had fully adhered (typically following 4-5 hours incubation) the plate was removed from the incubator and 10 μL of the diluent added to the control wells (A1-12 and B1-12). Compound was prepared in a six point semi-log dilution at 10× the final concentration required e.g. for a 6 point range of 30 μM to 100 nM in semi-log steps dilution started at 300 μM in stock plate. Dosing was completed by addition of 10 μL of compound at highest concentration to C1-12 through to the lowest concentration in H1-12. The plates were then incubated for 120 hours prior to SRB analysis.
Upon completion of incubation, media was removed and the cells fixed with […] of ice cold 10% (w/v) trichloroacetic acid. The plates were incubated at 4° C. for 20 minutes and then washed four times with water. Each well of cells was then stained with 100 μl of 0.4% (w/v) SRB (Sulforhodamine B, Sigma, Poole, Dorset, UK, Catalogue number S-9012) in 1% acetic acid for 20 minutes before washing four times with 1% acetic acid. Plates were then dried for 2 hours at room temperature. The dye from the stained cells was solubilized by the addition of 100 μl of 10 mM Tris Base into each well. Plates were gently shaken and left at room temperature for 30 minutes before measuring the optical density at 564 nm on a Microquant microtiter plate reader. The concentration of inhibitor eliciting a 50% reduction in growth (GI50) was determined by analysis of staining intensity of the treated cells as a percentage of the vehicle control wells using Excelfit software.
(A) Skehan, P., Storung, R., Scudiero, R., Monks, A., McMahon, J., Vistica, D., Warren, J. T., Bokesch, H., Kenny, S. and Boyd, M. R. (1990) New […] cytotoxicity assay for anticancer-drug screening. J. Natl. Cancer Inst. 82, 1107-1112.

[5] = upper bounds, read-out: IC50 values against mTOR

| SMILES | IC50 [3, 5] [µM] | GI50 ([4]; upper bounds) [µM] | GI50 [4] [µM] | other results |
| --- | --- | --- | --- | --- |
| C[C@@H]1CN(c2nc(N3CCOCC3)c3ccc(-c4ccsc4)nc3n2)C[C@H](C)O1 [Comparative Example 1k, reference compound] | – | – | – | IC50 ([1]; MDA-MB-468 cells, single values, read-out: IC50 (phospho-Ser473 Akt assay)): 0.412 µM; IC50 [2]: 0.225 µM; IC50 ([3]; single values, read-out: IC50): 0.033 µM; GI50 ([4]; single values): 0.268 µM |
| COc1ccc(-c2ccc3c(N4CCOCC4)nc(N4C[C@@H](C)O[C@@H](C)C4)nc3n2)cc1CNC1CCOCC1 [Example 8i] | < 0.1 | < 0.3 | – | – |
| COc1ccc(-c2ccc3c(N4CCOCC4)nc(N4C[C@@H](C)O[C@@H](C)C4)nc3n2)cc1CNC1CCCC1 [Example 8k] | < 0.1 | < 0.3 | – | – |
| CCCCNCc1cc(-c2ccc3c(N4CCOCC4)nc(N4C[C@@H](C)O[C@@H](C)C4)nc3n2)ccc1OC [Example 8l] | < 0.1 | < 0.3 | – | – |
| COc1ccc(-c2ccc3c(N4CCOCC4)nc(N4C[C@@H](C)O[C@@H](C)C4)nc3n2)cc1CNCCC(C)C [Example 8m] | < 0.1 | – | < 1 | – |
| COc1ccc(-c2ccc3c(N4CCOCC4)nc(N4C[C@@H](C)O[C@@H](C)C4)nc3n2)cc1CNC1CCCCCCC1 [Example 8n] | < 0.1 | – | < 1 | – |
| COc1ccc(-c2ccc3c(N4CCOCC4)nc(N4C[C@@H](C)O[C@@H](C)C4)nc3n2)cc1CNC1CCCCC1 [Example 8o] | < 0.1 | – | < 1 | – |
| COc1ccc(-c2ccc3c(N4CCOCC4)nc(N4C[C@@H](C)O[C@@H](C)C4)nc3n2)cc1CNC1CCC(C)CC1 (stereo partly shown) [Example 8p] | < 1 | – | < 1 | – |
| COc1ccc(-c2ccc3c(N4CCOCC4)nc(N4C[C@@H](C)O[C@@H](C)C4)nc3n2)cc1CNCCC(C)(C)C [Example 8q] | < 1 | – | < 1 | – |
| COc1ccc(-c2ccc3c(N4CCOCC4)nc(N4C[C@@H](C)O[C@@H](C)C4)nc3n2)cc1CNC(C)C [Example 8r] | < 1 | < 0.3 | – | – |
| CCOCCCNCc1cc(-c2ccc3c(N4CCOCC4)nc(N4C[C@@H](C)O[C@@H](C)C4)nc3n2)ccc1OC [Example 8s] | < 1 | – | < 1 | – |
| COc1ccc(-c2ccc3c(N4CCOCC4)nc(N4C[C@@H](C)O[C@@H](C)C4)nc3n2)cc1CNC(C)CC(C)C (stereo partly shown) [Example 8t] | < 1 | < 0.3 | – | – |
| COc1ccc(-c2ccc3c(N4CCOCC4)nc(N4C[C@@H](C)O[C@@H](C)C4)nc3n2)cc1CNCC(C)C [Example 8u] | < 1 | < 0.3 | – | – |
| COCCNCc1cc(-c2ccc3c(N4CCOCC4)nc(N4C[C@@H](C)O[C@@H](C)C4)nc3n2)ccc1OC [Example 8v] | < 1 | – | < 1 | – |
| COc1ccc(-c2ccc3c(N4CCOCC4)nc(N4C[C@@H](C)O[C@@H](C)C4)nc3n2)cc1CNC1CCCCC1C (stereo partly shown) [Example 8w] | < 1 | – | < 1 | – |
| C#CC1(NCc2cc(-c3ccc4c(N5CCOCC5)nc(N5C[C@@H](C)O[C@@H](C)C5)nc4n3)ccc2OC)CCCCC1 [Example 8x] | < 1 | – | < 1 | – |
| COc1ccc(-c2ccc3c(N4CCOCC4)nc(N4C[C@@H](C)O[C@@H](C)C4)nc3n2)cc1CNC(Cc1ccc([N+](=O)[O-])cc1)C(=O)O (stereo partly shown) [Example 8y] | < 1 | – | < 1 | – |
| COc1ccc(-c2ccc3c(N4CCOCC4)nc(N4C[C@@H](C)O[C@@H](C)C4)nc3n2)cc1CNCc1cccc(OC)c1OC [Example 8z] | < 10 | – | < 1 | – |
| C[C@@H]1CN(c2nc(N3CCOC[C@@H]3C)c3ccc(-c4ccsc4)nc3n2)C[C@H](C)O1 [Example 11k] | – | – | – | IC50 ([1]; MDA-MB-468, read-out: IC50 (phospho-Ser473 Akt assay)): 0.083 µM; GI50 ([4]; single values): 0.032 µM |
